Data taken from US20160281089A1, “PREVENTION OF VIRAL INFECTIVITY” (priority 2005, published 2016).

Key:
[1] = molecular target: T1, RT/RNaseH (Human immunodeficiency virus type 1 group M subtype B, UniProt P04585); test: RNase H cleavage assay with synthetic 5'-end-labelled RNA and RT/RNaseH; format: biochemical, HIV-1; design: the HIV RT/RNase H is a heterodimer of p66 and p51 with and without RNase H; details: for RT/RNaseH cleavage of RNA2 (contains extended PPT): 10 nM 5'-labelled RNA2
Description: We used synthetic 5′-end-labelled RNA2, which contains the extended PPT and sequences of the viral genome close to the PPT. […] For the present study we used low concentrations of the ODNs.
To test whether an ODN-mediated activity would preferentially occur at the PPT, we analysed ODNs targeted to the extended PPT (ODN A) or to a region outside of the PPT (ODN CO and an external antisense oligodeoxynucleotide asEXT) in vitro. We used RNA2, which contains the PPT and the binding sites for ODN A, asEXT and ODN CO. […] Indeed, in the reaction mixture containing both ODN A and asEXT primers, extension products, predominantly synthesized by the RT/RNaseH, started with ODN A and not asEXT (FIG. 2B). […] Thus, the ability of the ODN A to mediate RT/RNaseH-dependent cleavage of the viral RNA is PPT-dependent.
(A) Cleavage assay. 10 nM of in vitro transcribed 5′-labeled RNA was hybridized with 10, 100 and 1000 nM of ODN A and incubated in the presence of RT/RNaseH. The cleavage products were analyzed by denaturing PAGE as described in Materials and methods. (B). Primer extension assay. Synthetic RNA2 was hybridized with ODN A, antisense primer (asEXT) or both primers combined, and the primer extension was performed as described in Materials and Methods. Elongation products were analysed by 8 M urea/10% PAGE. (C) Cleavage assay. RNA/ODN hybrids, obtained using 10 nM of RNA2 and 10 nM of ODN A, asPPT or ODN CO were incubated with RT/RNaseH and cleavage products were analyzed by denaturing PAGE as described in Materials and methods. Cleavage or extension products are presented schematically to the right of each blot. Cleavage sites are indicated by arrows and labelled cleavage products are shown by black lines. Dots on extension products indicate the incorporated labelled dATPs.

[2] = molecular target: T1, RT/RNaseH; details: high concentrations; previously shown (ref. 12); cited from earlier work
[3] = system: SFFV; test: Survival of SFFV-infected DBA/2 mice treated with ODN M at times 0 and 1 hour; format: in vivo; details: ODN M 1 mg at 0 and 1 hour, i.p.
Description: We also monitored survival of SFFV-infected mice treated with and without ODN M at times 0 and 1 hour, in this case DBA/2 mice and by i.p. route (FIG. 11b).
Five mice each received 300 μl SFFV (1:100) i.p. supplemented with or without ODN M and 1 h later a second dose of ODN M (1 mg each). Survival was monitored until day 68. The spleen weights at death are indicated as numbers on the graph.

[4] = molecular target: T2, recombinant M-MuLV RT/RNase H (Moloney murine leukemia virus, UniProt P03355); test: In vitro cleavage of synthetic SFFV PPT-RNA with recombinant M-MuLV RT/RNase H; format: biochemical; details: 5'-end-labelled RNA
T2 construct: The 80 kDa RT/RNase H of M-MuLV is a monomer
Description: To test, whether ODN M would have similar effects as ODN A, we tested the ability of ODN M to induce cleavage of SFFV RNA in the presence of the recombinant M-MuLV RT/RNase H. We used synthetic 5′-end-labelled RNA, which contains the extended PPT of SFFV and sequences of the viral genome dose to the PPT. […] M-MuLV RT/RNase H induced ODN M-mediated cleavage in a dose-dependent manner (FIG. 8b left). The cleavage induced by the various ODNs leads to degradation of the SFFV PPT-RNA in vitro as shown (FIG. 8b right). […] We concluded that SFFV could serve as model for HIV.
a. 5′-labeled synthetic PPT-RNAs of SFFV (left) and HIV-1 (right) were annealed and cleaved with recombinant M-MuLV or HIV-1 RT/RNase H in the absence or presence of ODN M or ODN A. Cleavage products were analyzed by 8M urea-containing PAGE (6%). Filled arrowheads correspond to the specific RT/RNase H cleavage sites, open arrowheads to additional cleavage sites. RNase T1-digested RNA (RNase T1) served as marker. M indicates the Decade Marker.
b. Titration of recombinant M-MuLV RT/RNase H in the presence of ODN M (50 nM) and 5′-labeled SFFV-PPT-RNA. […] 5′-labeled SFFV-PPT-RNA or control RNA without PPT (Con.) were hybridized with the ODNs and treated with and without MuLV RT/RNase H for in vitro cleavage as indicated and analyzed by 8M urea-containing PAGE (10%, right).

[5] = system: SFFV virions; test: Permeabilized cell-free SFFV virions incubated with ODNs, undigested RNA by real-time PCR; format: biochemical; details: 5 μM ODN, compared to control ODNs or asPPT
Description: In order to further characterize antiviral effects of ODNs, we tested ODN M, asPPT and structural analogs of ODN M in SFFV virions, which contain endogenous RT/RNase H and have an appropriate secondary structure of the RNA. Permeabilized virions were incubated with ODNs, viral RNA was then purified, reverse transcribed and the amount of undigested RNA was quantified by real-time PCR using a set of primers harboring the PPT region of the SFFV genome. […] We observed differences in the antiviral activities between various ODNs. […] Thus, the presence as well as the sequences of both strands of the ODN contributed to the antiviral effect. We noticed previously that the second arm of the ODN is more important intracellularly than in vitro.
a. Cell-free SFFV virions (1×10^3 FFU in 20 μl) were permeabilized and incubated with the indicated ODNs (5 μM). RNA was extracted three days post-treatment and analyzed by quantitative real-time RT-PCR shown as bars (top) and RT-PCR shown as amplifications products on a 1.5% agarose gel (bottom).

Sequence | RT/RNaseH cleavage of RNA2 (contains extended PPT) ([1]; 10 nM ODN) | cleavage of RNA2 compared to control ODN CO ([1]; 10 nM RNA2, 10 nM ODN, FIG. 2C) | cleavage of RNA2 compared to single-stranded asPPT ([1]; 10 nM RNA2, 10 nM ODN, FIG. 2C) | RT/RNaseH cleavage of RNA2 (contains extended PPT) ([1]; 1 μM ODN) | ODN-mediated cleavage of RNA3 (no PPT sequence) ([1]; RNA3 without PPT) | concentration at which ODN inhibits the RT/RNaseH activity in vitro [2] | survival time [3] | number of treated mice with prolonged survival ([3]; DBA/2 mice) | survival of the surviving mice ([3]; untreated mice died after 20 to 30 days) | cleavage of synthetic SFFV PPT-RNA [4] | amount of intact SFFV RNA in virions (antiviral activity) [5]
TTTTCTTTTGGGGGGTTTGGTTGGGTTTTCCCTTCCAGTCCCCCCTTTTCTTTT (phosphorothioate linkages, further chemistry not given here) [ODN A] | cleaved | more efficient cleavage | slightly stronger | not | not affected | ≥ 1 µM |  |  |  |  | 
TCTTTTTGGGGGGTTTGTTTGTTTTTTCTTTCATTCCCCCCTTTTTCT (chemistry not given here) [ODN M, 22-mer antisense and 22-mer second strand connected by T4, targeted to extended PPT of SFFV] |  |  |  |  |  |  | almost doubled | Two out of five | more than 60 days | cleaved | strongest effect
